Results on 10 compounds are retold here after patent US4935520A, “Compound, oleyl-2-pyridinioethyl phosphate having antifungal and antiprotozoal properties” (Takeda Chemical Industries, Ltd., priority 1982, dated 1990).

Where two headings read alike, the source gives them in different places.

The test system of experiment [1] is Tetrahymena pyriformis W strain. Put plainly: Antiprotozoal activity, MIC. It counts as cell-based. As to conditions: broth dilution method, pH 7.0, 28° C., 44 to 48 hours; for MIC: Tetrahymena pyriformis, read-out: MIC against Tetrahymena pyriformis W strain. The procedure: The antiprotozoal activity values as shown in Table 4 were assayed using Tetrahymena pyriformis W strain as the test organism and an assay medium composed of 20 g of tryptose peptone (manufactured by Difco), 1 g of yeast extract, 2 g of glucose, 1000 ml of distilled water and 10 ml of 1M phosphate buffer (pH 7.0). The incubation was continued at 28° C. for 44 to 48 hours and the minimum inhibitory concentration (MIC) of the compounds of this invention was determined by the broth dilution method.
A general note: Broth dilution looks for growth in wells or tubes with falling amounts of substance.

In experiment [2] the test system is Colletctrichum lagenarium IFO-6207. Kind of experiment: Antifungal activity, MIC. The experiment is classed as cell-based.
Experiment [3] has as its system Aspergillus niger IFO-6341. Kind of experiment: Antifungal activity, MIC. As to conditions: IFO6341, test organism 1, 1% glucose-bouillon agar medium, serial dilution method. The experiment is classed as cell-based. The procedure:
The antimycotic (antifungal) activity values as shown in Table 3 were assayed on various organisms including phytopathogenic microorganisms using 1% glucose-bouillon agar medium, and the minimum inhibitory concentration (MIC) was determined by the serial dilution method.

Experiment [4] concerns Saccharomyces cerevisiae IFO-0209. Kind of experiment: Antifungal activity, MIC. The experiment is classed as cell-based.
Experiment [5] relates to Penicillium citrinum IFO-6352. Kind of experiment: Antifungal activity, MIC. The experiment is classed as cell-based.
The next experiment deals with Gibberella fujiknroi. Put plainly: Antifungal activity, MIC. It counts as cell-based.
In the next experiment the test system is sarcoma 180. Kind of experiment: Effects against sarcoma 180 (survival rate, ICR mice). It counts as in vivo. As to conditions: 1 mg per mouse i.p., four days before 1×10^5 cells of sarcoma 180 i.p.; vs physiological saline control.
Experiment [6] concerns Helminthosporium sigmoideum IFO-4867. Put plainly: Antifungal activity, MIC. The experiment is classed as cell-based. As to conditions: Nakataea oryzae, IFO4867.
Experiment [7] relates to Helminthosporium oryzae IFO-7503. Kind of experiment: Antifungal activity, MIC. As to conditions: Bipolaris oryzae, IFO7503. The experiment is classed as cell-based.
Experiment [8] has as its system Pyricularia oryzae IFO-5279. Put plainly: microbe, parasite or virus in culture. As to conditions: IFO5279. It counts as cell-based.
The test system of experiment [9] is Botrytis cinerea IFO-5365. Kind of experiment: Antifungal activity, MIC. It counts as cell-based.
A further experiment relates to MM46 carcinoma. Kind of experiment: Effects against MM46 (surviving mice, C3H/He mice). The note with it: 24th day after transplantation of 1×10^4 MM46 cells i.p.; 250 μg i.p., eight times in total. It counts as in vivo. Here is the method: To each of C3H/He mice group was transplanted intraperitoneally 1×10^4 cells of MM46 carcinoma. Four times from five days to two days before the transplantation and four times from two days to five days after the transplantation, eight times in total, 250 μg of the test compound dissolved in 0.2 ml of physiological saline was administered intraperitoneally. The number of mice surviving on the 24th day after transplantation of the carcinoma cells was compared with that of the control group administered with saline.

Setting [10] is: IFO6352, test organism 2, 1% glucose-bouillon agar medium, serial dilution method, read-out: MIC.
The mark [11] stands for this setting: test organism 8, 1% glucose-bouillon agar medium, serial dilution method, read-out: MIC.
The mark [12] stands for this setting: test organism 9, 1% glucose-bouillon agar medium, serial dilution method, read-out: MIC.
Setting [13] is: IFO0209, test organism 3, 1% glucose-bouillon agar medium, serial dilution method, read-out: MIC.
The mark [14] stands for this setting: IFO5365, test organism 7, 1% glucose-bouillon agar medium, serial dilution method, read-out: MIC.

On to “2-Trimethylammonioethyl cetyl phosphonate [Production Example 8]”, for which the “MIC against Tetrahymena pyriformis W strain” value in [1] came out at 2 µg/mL.
On to `CCCCCCCCCCCCCCOP(=O)([O-])OCC[N+](C)(C)C` [Production Example 1, Tetradecyl 2-trimethylammonioethyl phosphate], for which the MIC was found to be 3.12 µg/mL in [2]; 2 µg/mL in experiment [1]; 12.5 µg/mL in experiment [3]; 12.5 µg/mL in [4] (IFO0209); 6.25 µg/mL in [5] (IFO6352); 25 µg/mL against Gibberella fujiknroi. The MIC was 6.25 µg/mL in [6], 12.5 µg/mL in experiment [7], 3.12 µg/mL in [8] and 25 µg/mL in [9] (IFO5365). Moreover, the “Survival Rate (T/C)” value with sarcoma 180 came to 217.
`CCCCCCCCCCCCCCOP(=O)([O-])OCC[n+]1ccccc1` [Production Example 2, Tetradecyl 2-pyridinioethyl phosphate]: the MIC in experiment [2] was 3.12 µg/mL; in [1], no less than 4 µg/mL; in experiment [3], 25 µg/mL; in [4] (IFO0209) it was 50 µg/mL; in [5] (setting [10]) it was 12.5 µg/mL; against Gibberella fujiknroi it was 25 µg/mL. Moreover, the MIC in experiment [6] (setting [11]) stood at 12.5 µg/mL; in [7], 25 µg/mL; in experiment [8], 3.12 µg/mL; in experiment [9] (IFO5365), 50 µg/mL. The “Survival Rate (T/C)” value in the experiment with sarcoma 180 worked out at 152.
As to `CCCCCCCC/C=C\CCCCCCCCOP(=O)([O-])OCC[N+](C)(C)C` [Production Example 3, Oleyl 2-trimethylammonioethyl phosphate], the MIC came out at 50 µg/mL in experiment [2] (setting [12]); 0.4 µg/mL in experiment [1]; 12.5 µg/mL in [3]; 6.25 µg/mL in [4] (setting [13]); 25 µg/mL in experiment [5] (setting [10]); 12.5 µg/mL in the experiment on Gibberella fujiknroi. Besides, the MIC turned out to be 1.56 µg/mL in experiment [6], 12.5 µg/mL in experiment [7], 1.56 µg/mL in experiment [8] and 3.12 µg/mL in [9] (setting [14]). Also, the “Survival Rate (T/C)” value with sarcoma 180 was determined as 302. Also, the “Surviving mice/Test mice” value in the experiment on MM46 carcinoma was 3/5.
On to `CCCCCCCC/C=C\CCCCCCCCOP(=O)([O-])OCC[n+]1ccccc1` [Production Example 4, Oleyl 2-pyridinioethyl phosphate], for which the MIC in [2] worked out at 50 µg/mL; in experiment [3], 50 µg/mL; in experiment [4] (setting [13]) it was 25 µg/mL; in experiment [5] (setting [10]), 25 µg/mL; in the experiment with Gibberella fujiknroi (test organism 6, 1% glucose-bouillon agar medium, serial dilution method, read-out: MIC), 25 µg/mL; in experiment [6] (setting [11]), 6.25 µg/mL. Further, the MIC in [7] came out at 50 µg/mL; in [8], 3.12 µg/mL; in experiment [9] (setting [14]), 6.25 µg/mL. In the experiment with sarcoma 180, the “Survival Rate (T/C)” value is recorded as 308. For the same compound, in the experiment on MM46 carcinoma, the “Surviving mice/Test mice” value is reported as 2/5.
Take `CCCCCCCCCCCCCCCCCCCCCCOP(=O)([O-])OCC[N+](C)(C)C` [Production Example 5, Docosyl trimethylammonioethyl phosphate]: the MIC in [1] is greater than 4 µg/mL. Further, in the experiment with sarcoma 180, the “Survival Rate (T/C)” value came to 167.
Consider `CCCCCCCCCCCCCCCCCCOP(=O)([O-])OCC[N+](C)(C)C` [Production Example 6, Stearyl 2-trimethylammonioethyl phosphate], for which the MIC in experiment [2] (setting [12]) is 100 µg/mL; in experiment [1], no more than 1 µg/mL; in experiment [3], 25 µg/mL; in [4] (IFO0209), 12.5 µg/mL; in experiment [5] (IFO6352), 25 µg/mL; against Gibberella fujiknroi, 50 µg/mL. Besides, the MIC in experiment [6] was 3.12 µg/mL; in [7] it was 50 µg/mL; in experiment [8] it was 6.25 µg/mL; in [9] (IFO5365), 6.25 µg/mL. Also, in the experiment with sarcoma 180, the “Survival Rate (T/C)” value is given as 200.
As to `CC(C)CCCC(C)CCCC(C)CCCC(C)CCOP(=O)([O-])OCC[N+](C)(C)C` (stereo not shown) [Production Example 7, 3,7,11,15-Tetramethylhexadecyl 2-trimethylammonioethyl phosphate], the MIC in experiment [2] (setting [12]) was 100 µg/mL; in experiment [1], 4 µg/mL; in the experiment with Gibberella fujiknroi it was 6.25 µg/mL; in experiment [8] it was 1.56 µg/mL; in experiment [9] (IFO5365), 25 µg/mL.
With `CCCCCCCCCCCCCCC/C=C/COP(=O)([O-])OCC[N+](C)(C)C` [Production Example 10, (E)-2-Octadecenyl 2-trimethylammonioethyl phosphate], the MIC in [1] is no more than 1 µg/mL.
In the case of `CCCCCCCCC(CCCCCCCC)OP(=O)([O-])OCC[N+](C)(C)C` [Production Example 11, (1-Octyl)nonyl 2-trimethylammonioethyl phosphate], the MIC in [1] was no more than 1 µg/mL. Further, the “Survival Rate (T/C)” value with sarcoma 180 was determined as 282.
